Data on 23 molecules can be found in US20240228488A1 (TAKEDA PHARMACEUTICAL COMPANY LIMITED, priority 2021, published 2024).

Where only a bound is given, the exact number is not on record here.

human activated kallikrein enzyme, sequence (P03952 391-638 limits assumed): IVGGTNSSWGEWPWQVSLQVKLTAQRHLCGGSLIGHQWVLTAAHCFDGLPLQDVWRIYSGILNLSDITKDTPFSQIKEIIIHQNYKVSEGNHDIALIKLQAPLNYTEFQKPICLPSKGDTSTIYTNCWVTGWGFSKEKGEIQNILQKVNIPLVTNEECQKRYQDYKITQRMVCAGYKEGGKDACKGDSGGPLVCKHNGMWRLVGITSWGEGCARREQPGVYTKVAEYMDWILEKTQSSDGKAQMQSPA
human activated kallikrein enzyme, sequence (P03952 20-390 partner limits assumed): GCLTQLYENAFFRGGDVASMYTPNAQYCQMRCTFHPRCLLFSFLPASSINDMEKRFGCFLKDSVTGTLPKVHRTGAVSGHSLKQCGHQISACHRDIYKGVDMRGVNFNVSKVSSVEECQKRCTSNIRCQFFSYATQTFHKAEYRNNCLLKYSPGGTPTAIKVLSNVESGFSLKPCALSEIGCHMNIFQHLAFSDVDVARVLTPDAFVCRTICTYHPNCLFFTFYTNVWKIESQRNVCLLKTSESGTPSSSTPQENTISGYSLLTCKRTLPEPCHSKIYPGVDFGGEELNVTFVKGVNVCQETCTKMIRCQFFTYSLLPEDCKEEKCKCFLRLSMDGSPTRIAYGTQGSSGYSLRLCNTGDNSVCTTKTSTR

The first assay has as its target human activated kallikrein enzyme (Homo sapiens, UniProt P03952). Nature of the assay: Plasma kallikrein inhibition, fluorogenic PFR-AMC substrate, 500 pM activated kallikrein format. Format: biochemical. The conditions noted are these: 500 pM activated kallikrein, 300 uM PFR-AMC, 30 min preincubation, 10 min reaction; read-out: Primary Dose Response Assay: Average EC50. In outline:
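Fluorescence (ex 380/em 460 nm) is read after 10 min of 300 uM PFR-AMC turnover by 500 pM enzyme at RT. Compounds sit with enzyme for 30 min beforehand. Buffer is Tris (pH 7.5) with EDTA, NaCl, PEG-400 and Triton X-100; EC50 values are banded.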
For orientation: EC50 means the concentration needed to bring the measured effect to its halfway point. As to `Cc1ccnc([C@H]2C[C@@H]2C(=O)Nc2cc(NC(C)c3cn4cc(C5CC5)cc(N5CC(=O)N(CCOCc6ccccc6)C5=O)c4n3)nc(C3CC3)n2)n1` (stereo partly drawn) [Example 409, (1S,2S)-N-(6-((1-(8-(3-(2-(benzyloxy)ethyl)-2,4-dioxoimidazolidin-1-yl)-6-cyclopropylimidazo[1,2-a]pyridin-2-yl)ethyl)amino)-2-cyclopropylpyrimidin-4-yl)-2-(4-methylpyrimidin-2-yl)cyclopropane-1-carboxamide], the EC50 lay within 10 to 100 nM.
Same read-out and setting: with `Cc1ccnc([C@H]2C[C@@H]2C(=O)Nc2cc(N[C@H](C)c3cn4cc(C5CC5)cc(N5CC(=O)N(C)C5=O)c4n3)nc(CCO)n2)n1` [Example 468, (1S,2S)—N-(6-(((R)-1-(6-cyclopropyl-8-(3-methyl-2,4-dioxoimidazolidin-1-yl)imidazo[1,2-a]pyridin-2-yl)ethyl)amino)-2-(2-hydroxyethyl)pyrimidin-4-yl)-2-(4-methylpyrimidin-2-yl)cyclopropane-1-carboxamide] the figure was < 1 nM; with `O=C(Nc1cc(NCc2cn3cc(C4CC4)ccc3n2)ncn1)[C@@H]1C[C@]12CCc1ccc(Cl)cc12` (racemic) [Example I-183, rac-(1R*,2R*)-6′-chloro-N-(6-(((6-cyclopropylimidazo[1,2-a]pyridin-2-yl)methyl)amino)pyrimidin-4-yl)-2′,3′-dihydrospiro[cyclopropane-1,1′-indene]-2-carboxamide], 10 to 100 nM; with `Cc1ccnc([C@H]2C[C@@H]2C(=O)Nc2cc(N3C[C@@H](O)C[C@@H]3c3cn4cc(C5CC5)ccc4n3)ncn2)c1F` (relative stereo) [Example 542, rac-(1S*,2S*)-N-(6-((2R,4S)-2-(6-cyclopropylimidazo[1,2-a]pyridin-2-yl)-4-hydroxypyrrolidin-1-yl)pyrimidin-4-yl)-2-(3-fluoro-4-methylpyridin-2-yl)cyclopropane-1-carboxamide], 10 to 100 nM.
Same read-out and setting: the figure for `COc1cc([C@H]2C[C@@H]2C(=O)Nc2cc(NCc3cn4cc(C5CC5)ccc4n3)ccn2)cc(N)n1` (racemic) [Example 286, rac-(1S*,2S*)-2-(2-amino-6-methoxypyridin-4-yl)-N-(4-(((6-cyclopropylimidazo[1,2-a]pyridin-2-yl)methyl)amino)pyridin-2-yl)cyclopropane-1-carboxamide] is 10 to 100 nM; for `Cc1ccnc([C@H]2C[C@@H]2C(=O)Nc2cc(NC(c3cn4cc(C5CC5)cc(N5CC(=O)N(C)C5=O)c4n3)C(F)(F)F)ncn2)n1` (stereo partly drawn) [Example 370, (1S,2S)-N-(6-((1-(6-cyclopropyl-8-(3-methyl-2,4-dioxoimidazolidin-1-yl)imidazo[1,2-a]pyridin-2-yl)-2,2,2-trifluoroethyl)amino)pyrimidin-4-yl)-2-(4-methylpyrimidin-2-yl)cyclopropane-1-carboxamide] it is 10 to 100 nM; for `CC(C)(C)OC(=O)N1CC(c2cc(C3CC3)cn3cc(CNc4ccnc(NC(=O)[C@H]5C[C@@H]5c5cccc(Cl)c5)c4)nc23)C1` [Example I-226, tert-butyl 3-(2-(((2-((1S,2S)-2-(3-chlorophenyl)cyclopropane-1-carboxamido)pyridin-4-yl)amino)methyl)-6-cyclopropylimidazo[1,2-a]pyridin-8-yl)azetidine-1-carboxylate] it is 10 to 100 nM.
For `N#Cc1cc(Cl)sc1[C@H]1C[C@@H]1C(=O)Nc1cc(NCc2cn3cc(C4CC4)ccc3n2)ncn1` (racemic) [Example I-179, rac-(1S*,2S*)-2-(5-chloro-3-cyanothiophen-2-yl)-N-(6-(((6-cyclopropylimidazo[1,2-a]pyridin-2-yl)methyl)amino)pyrimidin-4-yl)cyclopropane-1-carboxamide], the EC50 fell in the range of 100 to 1000 nM.
The same measure, in the same setting: the figure for `COc1ccnc([C@H]2C[C@@H]2C(=O)Nc2cc(NCc3cn4cc(C5CC5)ccc4n3)ccn2)c1` (racemic) [Example I-214, rac-(1S*,2S*)-N-(4-(((6-cyclopropylimidazo[1,2-a]pyridin-2-yl)methyl)amino)pyridin-2-yl)-2-(4-methoxypyridin-2-yl)cyclopropane-1-carboxamide] is 1 to 10 nM.
Consider `COc1ccnc([C@H]2C[C@@H]2C(=O)Nc2cc(NCc3cn4cc(C5CC5)ccc4n3)ncn2)c1` (racemic) [Example I-204, rac-(1S*,2S*)-N-(6-(((6-cyclopropylimidazo[1,2-a]pyridin-2-yl)methyl)amino)pyrimidin-4-yl)-2-(4-methoxypyridin-2-yl)cyclopropane-1-carboxamide], for which the EC50 was in the range of 100 to 1000 nM.
Same read-out and setting: the figure for `Cc1ccnc([C@H]2C[C@@H]2C(=O)Nc2cc(N[C@@H](C)c3cn4cc(C(F)F)cc(N5CC(=O)N(C)C5=O)c4n3)ncn2)n1` [Example 416, (1S,2S)-N-(6-(((S)-1-(6-(difluoromethyl)-8-(3-methyl-2,4-dioxoimidazolidin-1-yl)imidazo[1,2-a]pyridin-2-yl)ethyl)amino)pyrimidin-4-yl)-2-(4-methylpyrimidin-2-yl)cyclopropane-1-carboxamide] is 10 to 100 nM; for `CS(=O)(=O)c1nc(NCc2cn3cc(C4CC4)ccc3n2)cc(NC(=O)[C@H]2C[C@@H]2c2cccc(Cl)c2)n1` (racemic) [Example 110, rac-(1S*,2S*)-2-(3-chlorophenyl)-N-(6-(((6-cyclopropylimidazo[1,2-a]pyridin-2-yl)methyl)amino)-2-(methylsulfonyl)pyrimidin-4-yl)cyclopropane-1-carboxamide] it is 10 to 100 nM; for `O=C(Nc1nccc2nn(Cc3cn4cc(C5CC5)ccc4n3)cc12)[C@H]1C[C@@H]1c1cc(Cl)ccc1[N+](=O)[O-]` (racemic) [Example 578, rac-(1S*,2S*)-2-(5-chloro-2-nitrophenyl)-N-(2-((6-cyclopropylimidazo[1,2-a]pyridin-2-yl)methyl)-2H-pyrazolo[4,3-c]pyridin-4-yl)cyclopropane-1-carboxamide] it is 1 to 10 nM.
Regarding `Cc1ccnc([C@H]2C[C@@H]2C(=O)Nc2cc(N[C@@H](C)c3cn4cc(C5CC5)cc(N5CC(=O)N(C)C5=O)c4n3)ncn2)n1` (single isomer, unassigned) [Example 452], the EC50 was 10 to 100 nM.
Same read-out and setting: with `CCC(=O)O[C@H]1C[C@H](c2cn3cc(C4CC4)cc(N4CC(=O)N(C)C4=O)c3n2)N(c2cc(NC(=O)[C@H]3C[C@@H]3c3nccc(C)n3)ncn2)C1` [Example 425, (3S,5R)-5-(6-cyclopropyl-8-(3-methyl-2,4-dioxoimidazolidin-1-yl)imidazo[1,2-a]pyridin-2-yl)-1-(6-((1S,2S)-2-(4-methylpyrimidin-2-yl)cyclopropane-1-carboxamido)pyrimidin-4-yl)pyrrolidin-3-yl propionate] the figure was 10 to 100 nM.
In the case of `COCc1nc(NC(=O)[C@H]2C[C@@H]2c2nccc(C)n2)cc(N[C@H](C)c2cn3cc(C4(F)CC4)cc(N4CC(=O)N(C)C4=O)c3n2)n1` [Example 439, (1S,2S)-N-(6-(((R)-1-(6-(1-fluorocyclopropyl)-8-(3-methyl-2,4-dioxoimidazolidin-1-yl)imidazo[1,2-a]pyridin-2-yl)ethyl)amino)-2-(methoxymethyl)pyrimidin-4-yl)-2-(4-methylpyrimidin-2-yl)cyclopropane-1-carboxamide], the EC50 was < 1 nM.
With `O=C(Nc1cc(NCc2cn3cc(C4CC4)ccc3n2)ncn1)[C@H]1[C@H](CO)[C@@H]1c1cccc(Cl)c1` (racemic) [Example I-180, rac-(1R*,2S*,3R*)-2-(3-chlorophenyl)-N-(6-(((6-cyclopropylimidazo[1,2-a]pyridin-2-yl)methyl)amino)pyrimidin-4-yl)-3-(hydroxymethyl)cyclopropane-1-carboxamide], the half-maximal effective concentration (EC50) lay within 10 to 100 nM.
For the molecule `Cc1ccnc([C@H]2C[C@@H]2C(=O)Nc2cc(N[C@H](C)c3cn4cc(C(C)(F)F)cc(N5CC(=O)N(C)C5=O)c4n3)ncn2)n1` [Example 531, (1S,2S)-N-(6-(((R)-1-(6-(1,1-difluoroethyl)-8-(3-methyl-2,4-dioxoimidazolidin-1-yl)imidazo[1,2-a]pyridin-2-yl)ethyl)amino)pyrimidin-4-yl)-2-(4-methylpyrimidin-2-yl)cyclopropane-1-carboxamide], the EC50 is < 1 nM.
For `Nc1cc(Cl)cc([C@H]2C[C@@H]2C(=O)Nc2cc(NCc3cn4cc(C5CC5)ccc4n3)ncn2)c1` (racemic) [Example I-256, rac-(1S*,2S*)-2-(3-amino-5-chlorophenyl)-N-(6-(((6-cyclopropylimidazo[1,2-a]pyridin-2-yl)methylamino)pyrimidin-4-yl)cyclopropane-1-carboxamide], the EC50 lay in the range of 10 to 100 nM.
The same measure, in the same setting: with `CC(=O)N1CCN(c2cc(C3CC3)cn3cc(CNc4cc(NC(=O)[C@H]5C[C@@H]5c5cccc(Cl)c5)ncn4)nc23)CC1` [Example I-1, (1S,2S)—N-(6-(((8-(4-acetylpiperazin-1-yl)-6-cyclopropylimidazo[1,2-a]pyridin-2-yl)methyl)amino)pyrimidin-4-yl)-2-(3-chlorophenyl)cyclopropane-1-carboxamide] the figure was 1 to 10 nM.
Take `O=C(NCc1cn(Cc2cn3cc(C4CC4)ccc3n2)nn1)[C@H]1C[C@@H]1c1cccc(Cl)c1` (racemic) [Example 588, rac-(1S*,2S*)-2-(3-chlorophenyl)-N-((1-((6-cyclopropylimidazo[1,2-a]pyridin-2-yl)methyl)-1H-1,2,3-triazol-4-yl)methyl)cyclopropane-1-carboxamide]: the EC50 lay within 10 to 100 nM.
On the same count and under the same terms, with `O=C(Nc1cc(NCc2cn3cc(C4CC4)cc(N4CC(=O)N(CC(F)(F)F)C4=O)c3n2)ncn1)[C@H]1C[C@@H]1c1cccc(Cl)c1` [Example 398, (1S,2S)-2-(3-chlorophenyl)-N-(6-(((6-cyclopropyl-8-(2,4-dioxo-3-(2,2,2-trifluoroethyl)imidazolidin-1-yl)imidazo[1,2-a]pyridin-2-yl)methyl)amino)pyrimidin-4-yl)cyclopropane-1-carboxamide] the figure was 1 to 10 nM.

Staying with this assay, now noted: comparative compounds, 500 pM activated kallikrein format; read-out: Primary Dose Response Assay: Average EC50.
Consider `O=C(N[C@H]1C[C@@H]1c1cccc(Cl)c1)c1cc(NCc2cn3cc(C4CC4)ccc3n2)ncn1`, for which the EC50 was in the range of 1000 to 6000 nM.
